Type in all cases: cell-based
Assay [1] deals with UM-UC-14 (FGFR3-S249C) cells. Kind of assay: cell proliferation assay (CellTiterGlo), UM-UC-14 cells. The settings on record: UMUC14, 72 h. The essentials:
(§1)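 Cells were incubated with vehicle (DMSO) or compound over a range of concentrations. Growth inhibition was read by CellTiterGlo luminescence of intracellular ATP. IC50 was derived after normalizing to vehicle-treated cells as viable.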
(In general: In ATP-based viability assays light output follows the ATP content of the culture.)

In assay [2] the test system is SNU-16 (FGFR2-amplification) cells. Kind of assay: cell proliferation assay (CellTiterGlo), SNU-16 cells. The settings on record: Homo sapiens, 72 hours. The method, boiled down:
as §1

Assay [3] concerns RT-112 (FGFR3-Tacc3 fusion) cells. Kind of assay: cell proliferation assay (CellTiterGlo), RT-112 cells. Conditions: Homo sapiens, RT-112, RT112 cells, 72 hours. The method, boiled down:
as §1

The subject of assay [4] is DMS-114 (FGFR1 overexpression) cells. Kind of assay: cell proliferation assay (CellTiterGlo), DMS-114 cells. The settings on record: Homo sapiens, DMS-114, 72 h. The essentials: as §1

Among the data in patent US20240368181A1, “QUINOXALINE DERIVATIVES AND USES THEREOF” (Black Diamond Therapeutics, Inc., priority 2021, published 2024) are IC50 values, retold here.

By IC50 is commonly meant the concentration that gives 50% inhibition.

For `Cc1nc2ccc(Oc3ccc4ncc(-c5cnn(CCN6C[C@H]7C[C@@H]6CO7)c5)nc4c3Cl)cc2[nH]1` [Compound 234], the IC50 in assay [1] was 20 to 100 nM; in assay [2] it was 20 to 100 nM; in assay [3], 20 to 100 nM; in assay [4], at least 400 nM.

Take `Cc1nc2ccc(Oc3ccc4ncc(-c5cnn(CC(C)(C)O)c5)nc4c3Cl)cc2[nH]1` [Compound 280]: the IC50 in assay [1] is 20 to 100 nM; in assay [2] it was 20 to 100 nM; in assay [3], 20 to 100 nM; in assay [4] it was at least 400 nM.

Take `Cc1nc2ccc(Oc3ccc4ncc(-c5cnn(C6CN(CC(=O)N7CCC7)C6)c5)nc4c3Cl)cc2[nH]1` [Compound 236]: the IC50 in assay [1] was 20 to 100 nM; in assay [2], 20 to 100 nM; in assay [3], 20 to 100 nM; in assay [4] it was at least 400 nM.

In the case of `Cc1nc2ccc(Oc3ccc4ncc(-c5cnn(CC(=O)N6CCC6)c5)nc4c3Cl)cc2[nH]1` [Compound 319], the IC50 is 20 to 100 nM in assay [1], 20 to 100 nM in assay [2], 20 to 100 nM in assay [3] and at least 400 nM in assay [4].

For `C=C1COC(Cn2cc(-c3cnc4ccc(Oc5ccc6nc(C)[nH]c6c5)c(Cl)c4n3)cn2)OC1` [Compound 298], the IC50 is 20 to 100 nM in assay [1], 100 to 400 nM in assay [2], 20 to 100 nM in assay [3] and at least 400 nM in assay [4].

Consider `Cc1nc2ccc(Oc3ccc4ncc(-c5cnn(CC6CC(F)(F)C6)c5)nc4c3C3=CCCOC3)cc2[nH]1` [Compound 91], for which the IC50 was 20 to 100 nM in assay [1], 20 to 100 nM in assay [2], 20 to 100 nM in assay [3] and at least 400 nM in assay [4].

With `Cc1nc2ccc(Oc3ccc4ncc(-c5cnn(CC(=O)NCCO)c5)nc4c3Cl)cc2[nH]1` [Compound 348], the IC50 in assay [1] is at least 400 nM; in assay [2] it was at least 400 nM; in assay [3], 100 to 400 nM; in assay [4], at least 400 nM.

Consider `Cc1nc2ccc(Oc3ccc4ncc(-c5cnn([C@H]6C[C@@H](N7CCOCC7)C6)c5)nc4c3Cl)cc2[nH]1` [Compound 323], for which the IC50 in assay [1] was 20 to 100 nM; in assay [2], below 20 nM; in assay [3], 20 to 100 nM; in assay [4], at least 400 nM.

For the compound `Cc1nc2ccc(Oc3ccc4ncc(-c5cnn(CC6CCC(O)CC6)c5)nc4c3Cl)cc2[nH]1` (stereo not drawn) [Compound 339], the half-inhibitory concentration (IC50) is below 20 nM in assay [1], below 20 nM in assay [2], below 20 nM in assay [3] and 100 to 400 nM in assay [4].

Turning to `Cc1nc2ccc(Oc3ccc4ncc(-c5cnn(CC6CCC(S(C)(=O)=O)CC6)c5)nc4c3Cl)cc2[nH]1` (stereo not drawn) [Compound 366], the IC50 is 20 to 100 nM in assay [1], 20 to 100 nM in assay [2], 20 to 100 nM in assay [3] and at least 400 nM in assay [4].

Consider `Cc1nc2ccc(Oc3ccc4ncc(-c5cnn(C6CN(c7ccccn7)C6)c5)nc4c3Cl)cc2[nH]1` [Compound 191], for which the IC50 in assay [1] was 100 to 400 nM; in assay [2] it was 100 to 400 nM; in assay [3], 100 to 400 nM; in assay [4] it was at least 400 nM.

Regarding `Cc1nc2ccc(Oc3ccc4ncc(-c5cnn(C6CCS(=N)(=O)CC6)c5)nc4c3Cl)cc2[nH]1` (stereo not drawn) [Compound 85], the IC50 was 100 to 400 nM in assay [1], 20 to 100 nM in assay [2], 20 to 100 nM in assay [3] and at least 400 nM in assay [4].

For the compound `Cc1nc2ccc(Oc3ccc4ncc(-c5cnn(C[C@H]6CCN(C)C[C@H]6F)c5)nc4c3Cl)cc2[nH]1` [Compound 368], the IC50 in assay [1] was in the range of 20 to 100 nM; in assay [2], 20 to 100 nM; in assay [3], 20 to 100 nM; in assay [4], 100 to 400 nM.

Take `Cc1nc2ccc(Oc3ccc4ncc(-c5cnn(CC6CC(=O)C6)c5)nc4c3Cl)cc2[nH]1` [Compound 308]: the IC50 was 20 to 100 nM in assay [1], 20 to 100 nM in assay [2], 20 to 100 nM in assay [3] and at least 400 nM in assay [4].

As for `Cc1nc2ccc(Oc3ccc4ncc(-c5cnn(CCC6CCNCC6)c5)nc4c3Cl)cc2[nH]1` [Compound 304], the IC50 is 20 to 100 nM in assay [1], 100 to 400 nM in assay [2], 20 to 100 nM in assay [3] and at least 400 nM in assay [4].

For the compound `Cc1nc2ccc(Oc3ccc4ncc(-c5cnn(CC6CC(C)(O)C6)c5)nc4c3Cl)cc2[nH]1` (stereo not drawn) [Compound 257], the IC50 in assay [1] was 20 to 100 nM; in assay [2], below 20 nM; in assay [3], below 20 nM; in assay [4], 100 to 400 nM.

Consider `Cc1nc2ccc(Oc3ccc4ncc(-c5cnn(CC6CCN(C)S(=O)(=O)C6)c5)nc4c3Cl)cc2[nH]1` (stereo not drawn) [Compound 240], for which the IC50 in assay [1] lay in the range of 20 to 100 nM; in assay [2], 20 to 100 nM; in assay [3], 20 to 100 nM; in assay [4], 100 to 400 nM.

As for `Cc1nc2ccc(Oc3ccc4ncc(-c5cnn(CC6CC7CC6CN7CC(N)=O)c5)nc4c3Cl)cc2[nH]1` (stereo not drawn) [Compound 329], the IC50 in assay [1] was below 20 nM; in assay [2], below 20 nM; in assay [3], below 20 nM; in assay [4], 100 to 400 nM.

Take `Cc1nc2ccc(Oc3ccc4ncc(-c5cnn(C6CN(C7CCOCC7)C6)c5)nc4c3Cl)cc2[nH]1` [Compound 238]: the IC50 in assay [1] fell in the range of 20 to 100 nM; in assay [2] it was 20 to 100 nM; in assay [3] it was 20 to 100 nM; in assay [4], 100 to 400 nM.

In the case of `Cc1nc2ccc(Oc3ccc4ncc(-c5cnn(CC6CC(F)(F)C6)c5)nc4c3N3CCOC3=O)c(F)c2[nH]1` [Compound 95], the IC50 is at least 400 nM in assay [1], 100 to 400 nM in assay [2], 100 to 400 nM in assay [3] and at least 400 nM in assay [4].

Take `Cc1nc2ccc(Oc3ccc4ncc(-c5cnn(CC6(O)CC6)c5)nc4c3C3=CCOC3)c(F)c2[nH]1` [Compound 77]: the IC50 in assay [1] was 20 to 100 nM; in assay [2], below 20 nM; in assay [3] it was below 20 nM; in assay [4], 20 to 100 nM.

Regarding `Clc1c(Oc2ccn3cncc3c2)ccc2ncc(-c3cnn(CC4CCNCC4)c3)nc12` [Compound 341], the IC50 in assay [1], in assay [2], in assay [3] and in assay [4] was at least 400 nM each time.

Turning to `Cc1nc2ccc(Oc3ccc4ncc(-c5cnn(CC6CC(F)(F)C6)c5)nc4c3-c3ccoc3)c(F)c2[nH]1` [Compound 81], the IC50 in assay [1] was below 20 nM; in assay [2] it was below 20 nM; in assay [3], below 20 nM; in assay [4] it was 100 to 400 nM.

With `Cc1nc2ccc(Oc3ccc4ncc(-c5cnn(C[C@@H](C)O)c5)nc4c3Cl)c(F)c2[nH]1` [Compound 130], the IC50 in assay [1] was below 20 nM; in assay [2], below 20 nM; in assay [3], below 20 nM; in assay [4] it was 100 to 400 nM.

As to `Cc1nc2ccc(Oc3ccc4ncc(-c5cnn(C(C)(C)CC(N)=O)c5)nc4c3Cl)cc2[nH]1` [Compound 282], the IC50 in assay [1] is 100 to 400 nM; in assay [2] it was 20 to 100 nM; in assay [3], 20 to 100 nM; in assay [4] it was at least 400 nM.

Turning to `Cc1nc2ccc(Oc3ccc4ncc(-c5cnn(CC6(O)CC6)c5)nc4c3N3CCOC3=O)c(F)c2[nH]1` [Compound 74], the IC50 in assay [1], in assay [2], in assay [3] and in assay [4] was at least 400 nM in each case.

Regarding `Cc1nc2ccc(Oc3ccc4ncc(-c5cnn(CC6(O)CC6)c5)nc4c3Cl)cc2[nH]1` [Compound 259], the IC50 in assay [1] is 20 to 100 nM; in assay [2], 20 to 100 nM; in assay [3], 20 to 100 nM; in assay [4] it was at least 400 nM.

With `Cc1nc2ccc(Oc3ccc4ncc(-c5cnn(C6CCN(S(C)(=N)=O)CC6)c5)nc4c3Cl)cc2[nH]1` (stereo not drawn) [Compound 82], the IC50 in assay [1] was 20 to 100 nM; in assay [2], below 20 nM; in assay [3], 20 to 100 nM; in assay [4], 100 to 400 nM.

For `Cc1nc2ccc(Oc3ccc4ncc(-c5cnn(CC6CCSCC6)c5)nc4c3Cl)cc2[nH]1` [Compound 377], the IC50 is 20 to 100 nM in assay [1], 20 to 100 nM in assay [2], 20 to 100 nM in assay [3] and at least 400 nM in assay [4].

For the compound `Cc1nc2ccc(Oc3ccc4ncc(-c5cnn(C(=O)OC(C)C)c5)nc4c3Cl)c(F)c2[nH]1` [Compound 141], the IC50 is 100 to 400 nM in assay [1], 20 to 100 nM in assay [2], 100 to 400 nM in assay [3] and at least 400 nM in assay [4].

Regarding `Cc1nc2ccc(Oc3ccc4ncc(-c5cnn(CCN6CCC(F)(F)C6)c5)nc4c3Cl)cc2[nH]1` [Compound 252], the IC50 is 20 to 100 nM in assay [1], 20 to 100 nM in assay [2], 20 to 100 nM in assay [3] and at least 400 nM in assay [4].

In the case of `Cc1nc2ccc(Oc3ccc4ncc(-c5cnn(C(C)(C)C6CC(=O)C6)c5)nc4c3Cl)cc2[nH]1` [Compound 150], the IC50 was 20 to 100 nM in assay [1], 20 to 100 nM in assay [2], 20 to 100 nM in assay [3] and at least 400 nM in assay [4].

As to `Cc1nc2ccc(Oc3ccc4ncc(-c5cnn(CC6(O)CCC6)c5)nc4c3Cl)cc2[nH]1` [Compound 146], the IC50 in assay [1] was 20 to 100 nM; in assay [2] it was 20 to 100 nM; in assay [3] it was 20 to 100 nM; in assay [4], at least 400 nM.

Turning to `COC1CC(Cn2cc(-c3cnc4ccc(Oc5ccc6nc(C)[nH]c6c5)c(Cl)c4n3)cn2)C1` (stereo not drawn) [Compound 281], the IC50 in assay [1] is 20 to 100 nM; in assay [2], 20 to 100 nM; in assay [3], 20 to 100 nM; in assay [4], at least 400 nM.

Regarding `Cc1nc2ccc(Oc3ccc4ncc(-c5cnn(C(C)(C)C(=O)C6CC[C@H](F)C6)c5)nc4c3Cl)cc2[nH]1` (stereo partly drawn) [Compound 195], the IC50 in assay [1] was 20 to 100 nM; in assay [2] it was 20 to 100 nM; in assay [3], 20 to 100 nM; in assay [4] it was at least 400 nM.

Turning to `Cc1nc2ccc(Oc3ccc4ncc(-c5cnn([C@H]6CCN(C7COC7)C[C@@H]6F)c5)nc4c3C)cc2[nH]1` [Compound 212], the IC50 lay in the range of 20 to 100 nM in assay [1], 20 to 100 nM in assay [2], 20 to 100 nM in assay [3] and 100 to 400 nM in assay [4].
